Results published in patent US8772480B2, “Inhibitors of PI3 kinase and/or mTOR” (priority 2009, dated 2014).

Tests used:
Format in all cases: biochemical
[1] = biological target: ProfilerPro Kinase Selectivity Assay Kit kinases (Homo sapiens, UniProt P23443); details: p70S6K; 1 μM compound concentration
Protocol: (§1) Compounds were profiled using a LabChip® EZ Reader II platform and a ProfilerPro Kinase Selectivity Assay Kit (Caliper Lifesciences Inc., Hopkinton, Mass.). Compounds were tested at a concentration of 1 M in duplicate, with mean data reported as percent of control (POC).

[2] = biological target: ProfilerPro Kinase Selectivity Assay Kit kinases (Homo sapiens, UniProt P36888); details: FLT3; 1 μM compound concentration
Protocol: as §1

[3] = biological target: ProfilerPro Kinase Selectivity Assay Kit kinases (Homo sapiens, UniProt P11362); details: FGFR1; 1 μM compound concentration
Sequence of ProfilerPro Kinase Selectivity Assay Kit kinases (Homo sapiens, UniProt P11362) (P11362 22-822 limits assumed): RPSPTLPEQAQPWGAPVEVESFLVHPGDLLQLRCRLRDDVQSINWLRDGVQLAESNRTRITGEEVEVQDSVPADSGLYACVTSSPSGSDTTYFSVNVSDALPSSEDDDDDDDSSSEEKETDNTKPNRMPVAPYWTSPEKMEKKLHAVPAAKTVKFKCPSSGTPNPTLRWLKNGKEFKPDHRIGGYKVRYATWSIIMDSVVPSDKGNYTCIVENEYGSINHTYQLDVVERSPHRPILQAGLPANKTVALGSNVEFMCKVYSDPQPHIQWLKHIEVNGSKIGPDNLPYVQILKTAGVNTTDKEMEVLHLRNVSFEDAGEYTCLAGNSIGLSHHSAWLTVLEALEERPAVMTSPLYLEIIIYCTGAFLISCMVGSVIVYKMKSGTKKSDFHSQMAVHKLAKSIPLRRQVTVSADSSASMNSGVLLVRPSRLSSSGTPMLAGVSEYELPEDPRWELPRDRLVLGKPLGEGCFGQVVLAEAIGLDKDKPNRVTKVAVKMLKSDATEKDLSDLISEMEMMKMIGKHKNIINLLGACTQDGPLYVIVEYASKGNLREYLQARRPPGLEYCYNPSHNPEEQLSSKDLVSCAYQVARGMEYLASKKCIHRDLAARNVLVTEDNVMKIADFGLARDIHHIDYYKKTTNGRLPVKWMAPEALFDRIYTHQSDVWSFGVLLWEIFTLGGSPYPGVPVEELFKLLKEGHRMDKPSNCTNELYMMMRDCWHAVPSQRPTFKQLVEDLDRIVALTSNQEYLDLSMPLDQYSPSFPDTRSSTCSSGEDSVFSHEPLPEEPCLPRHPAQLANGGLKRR
Protocol: as §1

[4] = biological target: ProfilerPro Kinase Selectivity Assay Kit kinases (Homo sapiens, UniProt O75116); details: ROCK2; 1 μM compound concentration
Protocol: as §1

[5] = biological target: ProfilerPro Kinase Selectivity Assay Kit kinases (Homo sapiens, UniProt O14757); details: CHK1; 1 μM compound concentration
Protocol: as §1

[6] = biological target: ProfilerPro Kinase Selectivity Assay Kit kinases (Homo sapiens, UniProt O96017); details: CHK2; 1 μM compound concentration
Protocol: as §1

[7] = biological target: ProfilerPro Kinase Selectivity Assay Kit kinases (Homo sapiens, UniProt P00519); details: ABL; 1 μM compound concentration
Protocol: as §1

[8] = biological target: ProfilerPro Kinase Selectivity Assay Kit kinases (Homo sapiens, UniProt P49137); details: MAPKAPK2; 1 μM compound concentration
Protocol: as §1

[9] = biological target: ProfilerPro Kinase Selectivity Assay Kit kinases (Homo sapiens, UniProt Q06187); details: BTK; 1 μM compound concentration
Protocol: as §1

[10] = biological target: ProfilerPro Kinase Selectivity Assay Kit kinases (Homo sapiens, UniProt P31749); details: AKT1; 1 μM compound concentration
Protocol: as §1

[11] = biological target: ProfilerPro Kinase Selectivity Assay Kit kinases (Homo sapiens, UniProt P35968); details: KDR; 1 μM compound concentration
Sequence of ProfilerPro Kinase Selectivity Assay Kit kinases (Homo sapiens, UniProt P35968) (P35968 20-1356 limits assumed): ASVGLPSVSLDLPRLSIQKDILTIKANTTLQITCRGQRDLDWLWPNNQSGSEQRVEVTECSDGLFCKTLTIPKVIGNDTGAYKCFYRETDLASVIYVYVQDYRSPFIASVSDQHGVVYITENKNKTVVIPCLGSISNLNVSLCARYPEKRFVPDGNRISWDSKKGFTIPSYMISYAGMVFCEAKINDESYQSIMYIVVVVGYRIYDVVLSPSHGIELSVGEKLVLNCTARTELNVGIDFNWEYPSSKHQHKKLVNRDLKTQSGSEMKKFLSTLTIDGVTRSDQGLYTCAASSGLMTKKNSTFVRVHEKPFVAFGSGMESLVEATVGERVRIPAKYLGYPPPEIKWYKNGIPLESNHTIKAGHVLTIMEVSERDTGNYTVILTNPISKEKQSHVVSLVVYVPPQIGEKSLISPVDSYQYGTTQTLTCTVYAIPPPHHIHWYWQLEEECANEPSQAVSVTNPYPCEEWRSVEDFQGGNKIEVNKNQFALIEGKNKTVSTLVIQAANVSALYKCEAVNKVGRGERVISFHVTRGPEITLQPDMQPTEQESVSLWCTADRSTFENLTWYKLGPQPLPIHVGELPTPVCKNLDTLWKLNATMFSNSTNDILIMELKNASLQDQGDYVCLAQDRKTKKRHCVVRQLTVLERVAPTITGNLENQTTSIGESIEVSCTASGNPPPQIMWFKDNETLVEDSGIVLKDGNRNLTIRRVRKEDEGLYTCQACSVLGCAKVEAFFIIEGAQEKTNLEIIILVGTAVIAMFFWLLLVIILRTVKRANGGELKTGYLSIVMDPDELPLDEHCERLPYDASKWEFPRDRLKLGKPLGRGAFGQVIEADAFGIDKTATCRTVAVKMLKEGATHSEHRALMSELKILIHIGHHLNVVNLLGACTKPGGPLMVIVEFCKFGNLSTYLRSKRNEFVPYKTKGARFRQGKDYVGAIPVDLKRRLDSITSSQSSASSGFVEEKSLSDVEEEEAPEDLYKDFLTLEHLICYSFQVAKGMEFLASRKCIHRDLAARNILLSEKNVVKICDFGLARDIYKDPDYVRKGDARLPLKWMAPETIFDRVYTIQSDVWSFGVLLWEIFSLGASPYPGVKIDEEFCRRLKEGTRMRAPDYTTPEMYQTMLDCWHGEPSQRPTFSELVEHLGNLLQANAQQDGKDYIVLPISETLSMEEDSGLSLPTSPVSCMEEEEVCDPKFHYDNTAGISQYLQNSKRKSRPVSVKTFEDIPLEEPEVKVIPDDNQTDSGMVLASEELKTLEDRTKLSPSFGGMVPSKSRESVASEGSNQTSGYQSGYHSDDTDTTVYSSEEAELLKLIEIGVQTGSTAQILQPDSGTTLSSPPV
Protocol: as §1

[12] = biological target: ProfilerPro Kinase Selectivity Assay Kit kinases (Homo sapiens, UniProt Q9P0L2); details: MARK1; 1 μM compound concentration
Protocol: as §1

[13] = biological target: ProfilerPro Kinase Selectivity Assay Kit kinases (Homo sapiens, UniProt P06239); details: LCK; 1 μM compound concentration
Sequence of ProfilerPro Kinase Selectivity Assay Kit kinases (Homo sapiens, UniProt P06239) (P06239 2-509 limits assumed): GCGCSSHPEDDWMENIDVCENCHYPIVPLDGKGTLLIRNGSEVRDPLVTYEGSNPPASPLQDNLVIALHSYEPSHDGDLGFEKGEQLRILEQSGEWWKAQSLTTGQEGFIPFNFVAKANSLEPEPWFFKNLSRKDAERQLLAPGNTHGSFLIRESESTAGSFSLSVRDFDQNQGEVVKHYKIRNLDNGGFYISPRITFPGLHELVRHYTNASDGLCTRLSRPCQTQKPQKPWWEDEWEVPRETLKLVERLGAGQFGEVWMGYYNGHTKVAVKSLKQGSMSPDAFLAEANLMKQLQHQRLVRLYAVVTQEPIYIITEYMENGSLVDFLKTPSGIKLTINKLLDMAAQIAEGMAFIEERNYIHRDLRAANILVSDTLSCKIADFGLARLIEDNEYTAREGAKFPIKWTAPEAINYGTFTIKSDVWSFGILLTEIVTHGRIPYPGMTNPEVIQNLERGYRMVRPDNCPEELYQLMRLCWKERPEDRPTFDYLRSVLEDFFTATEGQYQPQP
Protocol: as §1

[14] = biological target: ProfilerPro Kinase Selectivity Assay Kit kinases (Homo sapiens, UniProt Q9P1W9); details: PIM2; 1 μM compound concentration
Protocol: as §1

[15] = biological target: ProfilerPro Kinase Selectivity Assay Kit kinases (Homo sapiens, UniProt Q16566); details: CAMK4; 1 μM compound concentration
Protocol: as §1

[16] = biological target: ProfilerPro Kinase Selectivity Assay Kit kinases (Homo sapiens, UniProt O00141); details: SGK1; 1 μM compound concentration
Protocol: as §1

[17] = biological target: ProfilerPro Kinase Selectivity Assay Kit kinases (Homo sapiens, UniProt P28482); details: ERK2; 1 μM compound concentration
Sequence of ProfilerPro Kinase Selectivity Assay Kit kinases (Homo sapiens, UniProt P28482) (P28482 2-360 limits assumed): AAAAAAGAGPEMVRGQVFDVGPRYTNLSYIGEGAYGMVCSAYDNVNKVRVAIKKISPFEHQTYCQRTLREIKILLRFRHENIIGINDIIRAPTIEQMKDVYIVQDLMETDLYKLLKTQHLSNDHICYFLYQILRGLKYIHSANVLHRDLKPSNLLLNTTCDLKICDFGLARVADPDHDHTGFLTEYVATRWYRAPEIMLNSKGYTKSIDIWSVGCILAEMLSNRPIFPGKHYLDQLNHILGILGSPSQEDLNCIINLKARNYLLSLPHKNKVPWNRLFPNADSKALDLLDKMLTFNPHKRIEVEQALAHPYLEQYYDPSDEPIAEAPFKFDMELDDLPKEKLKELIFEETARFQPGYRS
Protocol: as §1

[18] = biological target: ProfilerPro Kinase Selectivity Assay Kit kinases (Homo sapiens, UniProt P08581); details: cMET; 1 μM compound concentration
Protocol: as §1

[19] = biological target: ProfilerPro Kinase Selectivity Assay Kit kinases (Homo sapiens, UniProt P24941); details: CDK2; 1 μM compound concentration
Protocol: as §1

[20] = biological target: ProfilerPro Kinase Selectivity Assay Kit kinases (Homo sapiens, UniProt Q13627); details: DYRK1a; 1 μM compound concentration
Protocol: as §1

[21] = biological target: ProfilerPro Kinase Selectivity Assay Kit kinases (Homo sapiens, UniProt Q8IW41); details: PRAK; 1 μM compound concentration
Protocol: as §1

[22] = biological target: ProfilerPro Kinase Selectivity Assay Kit kinases (Homo sapiens, UniProt O75582); details: MSK1; 1 μM compound concentration
Protocol: as §1

[23] = biological target: ProfilerPro Kinase Selectivity Assay Kit kinases (Homo sapiens, UniProt Q13976); details: PKGa2; 1 μM compound concentration
Protocol: as §1

[24] = biological target: ProfilerPro Kinase Selectivity Assay Kit kinases (Homo sapiens, UniProt Q9BZL6); details: PKD2; 1 μM compound concentration
Protocol: as §1

[25] = biological target: ProfilerPro Kinase Selectivity Assay Kit kinases (Homo sapiens, UniProt Q16539); details: p38 alpha; 1 μM compound concentration
Sequence of ProfilerPro Kinase Selectivity Assay Kit kinases (Homo sapiens, UniProt Q16539) (Q16539 2-360 limits assumed): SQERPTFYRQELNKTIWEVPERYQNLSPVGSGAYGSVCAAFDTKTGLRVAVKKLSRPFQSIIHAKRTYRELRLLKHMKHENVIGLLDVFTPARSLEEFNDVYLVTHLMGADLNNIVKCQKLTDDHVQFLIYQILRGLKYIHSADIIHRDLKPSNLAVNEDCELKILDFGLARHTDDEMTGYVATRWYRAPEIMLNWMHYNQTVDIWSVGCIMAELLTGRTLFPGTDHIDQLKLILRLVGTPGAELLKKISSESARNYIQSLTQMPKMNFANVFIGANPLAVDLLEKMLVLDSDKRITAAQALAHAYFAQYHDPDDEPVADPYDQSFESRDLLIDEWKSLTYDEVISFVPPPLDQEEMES
Protocol: as §1

[26] = biological target: ProfilerPro Kinase Selectivity Assay Kit kinases (Homo sapiens, UniProt P49841); details: GSK3 beta; 1 μM compound concentration
Protocol: as §1

[27] = biological target: ProfilerPro Kinase Selectivity Assay Kit kinases (Homo sapiens, UniProt P27361); details: ERK1; 1 μM compound concentration
Protocol: as §1

[28] = biological target: ProfilerPro Kinase Selectivity Assay Kit kinases (Homo sapiens, UniProt Q05513); details: PKC zeta; 1 μM compound concentration
Protocol: as §1

[29] = biological target: ProfilerPro Kinase Selectivity Assay Kit kinases (Homo sapiens, UniProt P07948); details: LYN; 1 μM compound concentration
Sequence of ProfilerPro Kinase Selectivity Assay Kit kinases (Homo sapiens, UniProt P07948) (P07948 2-512 limits assumed): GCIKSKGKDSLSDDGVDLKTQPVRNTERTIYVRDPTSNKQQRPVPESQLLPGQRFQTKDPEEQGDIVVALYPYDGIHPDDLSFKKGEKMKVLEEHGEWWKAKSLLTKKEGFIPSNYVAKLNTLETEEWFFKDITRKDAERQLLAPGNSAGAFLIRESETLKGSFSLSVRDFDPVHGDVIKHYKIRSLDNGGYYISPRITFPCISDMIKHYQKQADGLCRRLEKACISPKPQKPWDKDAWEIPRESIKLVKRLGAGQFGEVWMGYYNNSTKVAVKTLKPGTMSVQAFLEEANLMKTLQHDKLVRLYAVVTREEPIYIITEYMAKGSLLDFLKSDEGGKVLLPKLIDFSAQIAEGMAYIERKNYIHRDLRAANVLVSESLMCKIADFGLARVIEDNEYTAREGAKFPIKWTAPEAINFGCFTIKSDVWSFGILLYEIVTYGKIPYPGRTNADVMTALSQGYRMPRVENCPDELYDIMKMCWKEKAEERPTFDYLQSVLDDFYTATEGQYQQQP
Protocol: as §1

[30] = biological target: ProfilerPro Kinase Selectivity Assay Kit kinases (Homo sapiens, UniProt P04049); details: cRAF; 1 μM compound concentration
Protocol: as §1

[31] = tested on: ProfilerPro Kinase Selectivity Assay Kit kinases; details: 1 μM compound concentration
Protocol: as §1

Sequence of ProfilerPro Kinase Selectivity Assay Kit kinases (Homo sapiens, UniProt P36888) (P36888 27-993 limits assumed): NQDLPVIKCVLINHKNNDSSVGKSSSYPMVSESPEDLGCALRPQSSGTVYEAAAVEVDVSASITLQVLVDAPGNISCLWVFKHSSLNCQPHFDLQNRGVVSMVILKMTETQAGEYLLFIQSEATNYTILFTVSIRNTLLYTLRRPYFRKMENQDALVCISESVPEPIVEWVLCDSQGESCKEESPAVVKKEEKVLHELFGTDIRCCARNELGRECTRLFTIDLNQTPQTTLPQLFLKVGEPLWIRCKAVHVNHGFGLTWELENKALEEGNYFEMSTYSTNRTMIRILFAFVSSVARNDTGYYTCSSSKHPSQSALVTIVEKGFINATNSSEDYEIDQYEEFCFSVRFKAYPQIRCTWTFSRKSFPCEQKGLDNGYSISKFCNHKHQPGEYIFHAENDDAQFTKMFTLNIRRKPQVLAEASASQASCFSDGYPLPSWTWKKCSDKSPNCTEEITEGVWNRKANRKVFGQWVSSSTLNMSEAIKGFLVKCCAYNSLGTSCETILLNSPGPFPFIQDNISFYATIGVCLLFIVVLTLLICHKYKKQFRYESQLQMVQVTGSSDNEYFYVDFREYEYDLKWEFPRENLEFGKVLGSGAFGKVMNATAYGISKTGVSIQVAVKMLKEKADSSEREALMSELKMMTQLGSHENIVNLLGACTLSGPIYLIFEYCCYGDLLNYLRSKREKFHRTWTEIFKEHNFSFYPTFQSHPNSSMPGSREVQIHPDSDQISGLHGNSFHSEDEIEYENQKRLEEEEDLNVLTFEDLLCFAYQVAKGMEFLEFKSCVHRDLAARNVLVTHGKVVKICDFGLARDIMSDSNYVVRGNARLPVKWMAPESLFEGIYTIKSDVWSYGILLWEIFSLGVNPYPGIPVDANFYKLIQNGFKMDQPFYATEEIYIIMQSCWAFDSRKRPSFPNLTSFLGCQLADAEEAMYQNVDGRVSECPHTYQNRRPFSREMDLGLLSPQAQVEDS

Structure (SMILES) | POC (Percent of control) p70S6K [1] | POC (Percent of control) FLT3 [2] | POC (Percent of control) FGFR1 [3] | POC (Percent of control) ROCK2 [4] | POC (Percent of control) CHK1 [5] | POC (Percent of control) CHK2 [6] | POC (Percent of control) ABL [7] | POC (Percent of control) MAPKAPK2 [8] | POC (Percent of control) BTK [9] | POC (Percent of control) AKT1 [10] | POC (Percent of control) KDR [11] | POC (Percent of control) MARK1 [12] | POC (Percent of control) LCK [13] | POC (Percent of control) PIM2 [14] | POC (Percent of control) CAMK4 [15] | POC (Percent of control) SGK1 [16] | POC (Percent of control) ERK2 [17] | POC (Percent of control) cMET [18] | POC (Percent of control) CDK2 [19] | POC (Percent of control) DYRK1a [20] | other results
Cc1nc(N)nc(-c2cc(CN3CCN(S(C)(=O)=O)CC3)cnc2Nc2cccc(O)c2)n1 [Example 30, 3-(3-(4-Amino-6-Methyl-1,3,5-Triazin-2-yl)-5-((4-(Methyl Sulfonyl)Piperazin-1-yl)Methyl)Pyridin-2-Ylamino)Phenol] | 97 POC | 99 POC | 99 POC | 98 POC | 96 POC | 106 POC | 98 POC | 103 POC | 97 POC | 102 POC | 102 POC | 98 POC | 102 POC | 99 POC | 94 POC | 93 POC | 102 POC | 101 POC | 101 POC | 93 POC | POC (Percent of control) PRAK [21]: 112 POC; POC (Percent of control) MSK1 [22]: 90 POC; POC (Percent of control) PKGa2 [23]: 98 POC; POC (Percent of control) PKD2 [24]: 98 POC; POC (Percent of control) p38 alpha [25]: 99 POC; POC (Percent of control) GSK3 beta [26]: 104 POC; POC (Percent of control) ERK1 [27]: 93 POC; POC (Percent of control) PKC zeta [28]: 110 POC; POC (Percent of control) LYN [29]: 100 POC; POC (Percent of control) cRAF [30]: 95 POC; POC (Percent of control) AMPK [31]: 91 POC; POC (Percent of control) CAMK2 [31]: 103 POC; POC (Percent of control) PKC beta2 [31]: 94 POC; POC (Percent of control) TAK1 [31]: 99 POC
Cc1cnc(Nc2cccc3[nH]ccc23)c(-c2nc(C)nc(N)n2)c1 [Example 46, N-(3-(4-Amino-6-Methyl-1,3,5-Triazin-2-yl)-5-Methylpyridin-2-yl)-1H-Indol-4-Amine] | 90 POC | 99 POC | 98 POC | 94 POC | 98 POC | 101 POC | 97 POC | 98 POC | 98 POC | 93 POC | 90 POC | 102 POC | 96 POC | 99 POC | 96 POC | 89 POC | 116 POC | 104 POC | 97 POC | 96 POC | POC (Percent of control) PRAK [21]: 111 POC; POC (Percent of control) MSK1 [22]: 103 POC; POC (Percent of control) PKGa2 [23]: 95 POC; POC (Percent of control) PKD2 [24]: 106 POC; POC (Percent of control) p38 alpha [25]: 96 POC; POC (Percent of control) GSK3 beta [26]: 95 POC; POC (Percent of control) ERK1 [27]: 92 POC; POC (Percent of control) PKC zeta [28]: 198 POC; POC (Percent of control) LYN [29]: 96 POC; POC (Percent of control) cRAF [30]: 91 POC; POC (Percent of control) AMPK [31]: 91 POC; POC (Percent of control) CAMK2 [31]: 105 POC; POC (Percent of control) PKC beta2 [31]: 96 POC; POC (Percent of control) TAK1 [31]: 98 POC
Cc1cnc(Nc2cccc3[nH]ncc23)c(-c2nc(C)nc(N)n2)c1 [Example 47, N-(3-(4-Amino-6-Methyl-1,3,5-Triazin-2-yl)-5-Methylpyridine-2-yl)-1H-Indazol-4-Amine] | 60 POC | 89 POC | 94 POC | 93 POC | 92 POC | 99 POC | 81 POC | 101 POC | 93 POC | 50 POC | 86 POC | 107 POC | 61 POC | 104 POC | 91 POC | 89 POC | 104 POC | 102 POC | 93 POC | 82 POC | POC (Percent of control) PRAK [21]: 103 POC; POC (Percent of control) MSK1 [22]: 76 POC; POC (Percent of control) PKGa2 [23]: 80 POC; POC (Percent of control) PKD2 [24]: 113 POC; POC (Percent of control) p38 alpha [25]: 91 POC; POC (Percent of control) GSK3 beta [26]: 97 POC; POC (Percent of control) ERK1 [27]: 103 POC; POC (Percent of control) PKC zeta [28]: 102 POC; POC (Percent of control) LYN [29]: 55 POC; POC (Percent of control) cRAF [30]: 56 POC; POC (Percent of control) AMPK [31]: 87 POC; POC (Percent of control) CAMK2 [31]: 126 POC; POC (Percent of control) PKC beta2 [31]: 100 POC; POC (Percent of control) TAK1 [31]: 106 POC
